{"source": "patent US20230110824A1", "about": "“FLUORESCENT PROBES FOR DETECTION OF CALCIFICATIONS” (TECHNISCHE UNIVERSITÄT BERLIN, priority 2020, published 2023)", "key": {"[1]": {"assay": "Staining of mouse rib sections with the dyes, epifluorescence microscopy", "assay_type": "binding, mouse (C57BL/6)", "details": "for dependence of fluorescence intensity of rib staining on incubation time: 10 to 120 mins; for dependence of fluorescence intensity of rib staining on dye concentration: 1, 0.1 and 0.01 mg/mL in HEPES; for HAP-associated staining / binding to HAP in rib sections: 1 mg/mL", "procedure": "Mouse ribs (C57BL/6) were fixed in 4% paraformaldehyde (PFA). Ribs were processed for wax embedding through sequential immersion in increasing concentrations of ethanol followed by immersion in xylene/clearene and paraffin wax embedding. Rib sections (6 μm thickness) were dewaxed with xylene and rehydrated with decreasing concentrations of ethanol and distilled water (dH2O). Rib sections were incubated with a variety of either namely((4-(5,5-difluoro-1,3,7,9-tetramethyl-5H-414,514-dipyrrolo[1,2-c:2′,1′-f][1,3,2]diazaborinin-10-yl)phenyl)phosphonic acid) (BODIPY-PPA), 5,10,15,20-tetrakis[p-phenylphosphonicacid] porphyrin (p-H8TPPA) and 5,10,15,20-tetrakis[m-phenylphosphonic acid] porphyrin (m-H8TPPA) dyes. […] Meso-tetra(4-phosphorylphenyl)porphine, porph-tetra-meta-phenyl phosphonate, BODIPY-PPA; and BODIPY-PPA-2Et2 were all incubated for 120 mins when diluted to 1, 0.1 and 0.01 mg/mL in HEPES, and incubated at 1 mg/mL for 120, 60, 30, 20 and 10 mins. Images were obtained for up to two weeks after staining. p-H8TPPA-iPr8 and p-TBr3PPA-iPr2 were only incubated for 120 mins at 1 mg/mL, including an incubation with dimethyl sulfoxide (DMSO). Negative controls were included by incubating ribs with the buffers alone. Following incubation with the respective dyes, slides were washed with their respective buffers (3×5 mins) and counter stained with DAPI, diluted in PBS, for 20 mins. After washing with PBS (3×5 mins), slides were mounted with 70% glycerol, diluted in PBS. Images were acquired on a Leica DM5500 epifluorescent microscope, using a 20× objective. The exposure times used to capture these images were kept the same throughout imaging. Images were processed using the FIJI software.\nTo further probe their HAP binding properties, we have used laterally sectioned mouse ribs as an example of HAP, which were incubated with p-H8TPPA at concentrations ranging from 0.01 to 1.0 mg/mL in HEPES buffer for varying times at room temperature and imaged by fluorescence microscopy (for details see description of the figures), to assess HAP binding capability."}, "[2]": {"assay": "Absorbance and fluorescence spectra in presence and absence of HAP (Flexstation 3 microplate reader)", "assay_type": "binding", "procedure": "The absorbance (A) and fluorescence (B) spectra of 0.01 mg mL^−1p-H8TPPA in the presence (dashed lines) and absence (solid lines) of HAP. The dye was diluted to 0.01 mg mL^−1 in PBS (pH 7.4, green), TBS (pH 7.4, orange), HEPES (pH 7.4, purple) and d H2O with absorbance and fluorescence spectra obtained using the Flexstation 3 microplate reader.\nCharacterization of Probes: The structure and purity of the probes were characterized by liquid chromatography, infrared, NMR, and/or mass spectrometry. Their optical properties were characterized by absorption and fluorescence spectrophotometry in the presence and absence of authentic hydroxyapatite, whitlockite, and other doped apatites. The dyes were also tested on mouse ribs as an example of hydroxyapatite in tissue.\nThis is also reflected in the maximal peak of the fluorescence intensity (FIG. 14 B), with a shift from λem 646-648 nm for PBS, TBS and HEPES to λem 675 nm when diluted in dH2O. […] Previously reported bisphosphonate fluorophores had […] aliphatic carbons between the fluorescent core and HAP binding, therefore, such systems merely functioned as fluorescent labels with no change in emission due to HAP binding since they lacked synergistic interaction between the HAP and the fluorescent core. Phosphonic acids that have direct sp^2 bonds to the fluorescent core could extend the conjugation of the fluorescent core to the HAP and thereby could initiate changes in the ground and excited states resulting in quenching or enhancing the fluorescence emission."}, "THP-1 monocytes": {"tested_on": "THP-1 monocytes", "assay": "Cellular uptake / cell labeling of proliferating THP-1 monocytes, fluorescence emission scan", "assay_type": "cell-based, human", "details": "loading buffer, 60 min, 420 nm excitation", "procedure": "In addition to the application on bone sections, the phenylphosphonic acid/esterified porphyrins' propensity for cellular uptake was tested on proliferating human cells (FIG. 15). Aiming to use phenylphosphonic acid functionalized porphyrins in in vivo applications, the negative charge on the deprotonated phosphonate might be a handicap by limiting cell permeability. Optional demasking of phosphonate esters in metabolic surroundings might occur, recreating the metal binding PhPO3^2-. This possibility led us to examine p-H8TPPA and p-H8TPPA-iPr8 suitability for in vivo cellular experiments by testing their permeability on proliferating human THP-1 monocytes.\nWe have treated THP-1 monocytes with the Phosphorylphenyl-modified porphyrins in loading buffer (10 mM HEPES, pH 7.35, 120 mM NaCl, 5.4 mM KCl, 5 mM glucose, 1.3 mM CaCl2, 1 mM MgCl2, 1 mM NaH2PO4, 0.3% bovine serum albumin) for 60 min. Excess fluorescence dye was removed by multiple washing steps before fluorescence emission scanning using 420 nm excitation (Tecan Infinite M200 reader; Tecan, Germany). […] We hypothesize that the phosphonates, being somewhat amphipathic, were able to penetrate the cell membrane, whereas the more nonpolar esters were not as efficient."}, "[3]": {"tested_on": "intestinal Caco-2 cell line", "details": "at high concentrations; cited from earlier work"}, "[4]": {"assay": "Precipitation / solubility of the dye in incubation buffers", "procedure": "Mouse ribs were incubated for 120 mins with p-TBr3PPA-iPr2 (5,10,15-tris[p-bromophenyl]-20-[p-phenyl-, bis(1-methylethyl) ester phosphonic acid] porphyrin) diluted to 1 mg/mL in different buffers.\nMouse ribs were incubated for 120 mins with p-H8TPPA-iPr8 phosphonate diester diluted to 1 mg/mL in different buffers."}, "[5]": {"details": "1 mg/mL in HEPES, 120 mins, imaged up to 14 days / two weeks after staining"}}, "note": "“Also recorded” adds a separate entry of the source.", "data": [{"compound": "O=P(O)(O)c1cccc(-c2c3nc(c(-c4cccc(P(=O)(O)O)c4)c4ccc([nH]4)c(-c4cccc(P(=O)(O)O)c4)c4nc(c(-c5cccc(P(=O)(O)O)c5)c5ccc2[nH]5)C=C4)C=C3)c1", "note": "[m-H8TPPA, 5,10,15,20-tetrakis[m-phenylphosphonic acid] porphyrin]", "values": [{"measurement": "dependence of fluorescence intensity of rib staining on incubation time", "setting": "[1]; 1 mg/mL in HEPES", "value": "no clear difference in fluorescence intensity"}, {"measurement": "change of fluorescence intensity after staining", "setting": "[1]; [5]", "value": "no noticeable decrease in fluorescence intensity"}, {"measurement": "dependence of fluorescence intensity of rib staining on dye concentration", "setting": "[1]; 120 mins", "value": "little to no difference in the fluorescent intensity"}, {"measurement": "duration of fluorescence of stained ribs", "setting": "[1]; compared to p-H8TPPA", "value": "longer fluorescence period"}]}, {"compound": "O=P(O)(O)c1ccc(-c2c3nc(c(-c4ccc(P(=O)(O)O)cc4)c4ccc([nH]4)c(-c4ccc(P(=O)(O)O)cc4)c4nc(c(-c5ccc(P(=O)(O)O)cc5)c5ccc2[nH]5)C=C4)C=C3)cc1", "note": "[p-H8TPPA, 5,10,15,20-tetrakis[p-phenylphosphonic acid] porphyrin]", "values": [{"measurement": "fluorescent signal of stained ribs", "setting": "[1]; 0.1 mg/mL in HEPES", "value": "clear fluorescent signal"}, {"measurement": "fluorescent signal of stained ribs", "setting": "[1]; 1 mg/mL diluted in dH2O", "value": "no fluorescent signal"}, {"measurement": "dependence of fluorescence intensity of rib staining on incubation time", "setting": "[1]; 1 mg/mL in HEPES", "value": "clear increase in fluorescence intensity with an increasing incubation time"}, {"measurement": "difference of fluorescence intensity between buffers", "setting": "[1]; 1 mg/mL in HEPES, PBS, TBS", "value": "no clear difference"}, {"measurement": "change of fluorescence intensity after staining", "setting": "[1]; 1 mg/mL in HEPES, day of staining vs 7 days later", "value": "noticeable decrease in fluorescence intensity"}, {"measurement": "fluorescent signal of stained ribs compared to HEPES only negative control", "setting": "[1]; 1 mg/mL in HEPES, incubated for 10 mins", "value": "clear fluorescent signal"}, {"measurement": "HAP-associated staining / binding to HAP in rib sections", "setting": "[1]; 120 mins", "value": "specific for hydroxyapatite"}, {"measurement": "dependence of fluorescence intensity of rib staining on dye concentration", "setting": "[1]; 120 mins", "value": "binds to HAP with a concentration dependence"}, {"measurement": "fluorescent signal after staining", "setting": "[1]; diluted in PBS, after two weeks", "value": "weak fluorescent signal"}, {"measurement": "fluorescent signal after staining", "setting": "[1]; diluted in PBS, one week after staining", "value": "fluorescent signal above background signal"}, {"measurement": "fluorescent signal after staining", "setting": "[1]; diluted in TBS, one week after staining", "value": "fluorescent signal above background signal"}, {"measurement": "fluorescence intensity upon HAP binding", "setting": "[2]", "value": "increased"}, {"measurement": "increase of fluorescence intensity upon HAP binding", "setting": "[2]; 0.01 mg mL^-1 in HEPES pH 7.4", "value": 2.0, "unit": "fold"}, {"measurement": "increase of fluorescence intensity upon HAP binding", "setting": "[2]; 0.01 mg mL^-1 in PBS pH 7.4", "value": 1.8, "unit": "fold"}, {"measurement": "increase of fluorescence intensity upon HAP binding", "setting": "[2]; 0.01 mg mL^-1 in TBS pH 7.4", "value": 2.0, "unit": "fold"}, {"measurement": "increase of fluorescence intensity upon HAP binding", "setting": "[2]; 0.01 mg mL^-1 in d H2O", "value": 1.6, "unit": "fold"}, {"measurement": "maximal peak of the fluorescence intensity (λem)", "setting": "[2]; PBS, TBS and HEPES", "value": "646-648 nm"}, {"measurement": "absorbance peak maximum", "setting": "[2]; PBS, TBS and HEPES (before shift)", "value": 415, "unit": "nm"}, {"measurement": "absorbance peak maximum", "setting": "[2]; diluted in dH2O", "value": 435, "unit": "nm"}, {"measurement": "maximal peak of the fluorescence intensity (λem)", "setting": "[2]; diluted in dH2O", "value": 675, "unit": "nm"}, {"measurement": "cell labeling / passage through the cellular membrane", "setting": "THP-1 monocytes", "value": "much more efficient in cell labeling; also recorded: can travel through the cellular membrane"}, {"measurement": "toxicity for an intestinal cell line", "setting": "[3]", "value": "no toxicity"}]}, {"compound": "CC(C)OP(=O)(OC(C)C)c1ccc(-c2c3nc(c(-c4ccc(P(=O)(OC(C)C)OC(C)C)cc4)c4ccc([nH]4)c(-c4ccc(P(=O)(OC(C)C)OC(C)C)cc4)c4nc(c(-c5ccc(P(=O)(OC(C)C)OC(C)C)cc5)c5ccc2[nH]5)C=C4)C=C3)cc1", "note": "[p-H8TPPA-iPr8]", "values": [{"measurement": "HAP-associated staining / binding to HAP in rib sections", "setting": "[1]; 120 mins", "value": "no binding to HAP occurring; also recorded: complete lack of HAP-associated staining"}, {"measurement": "cell labeling / passage through the cellular membrane", "setting": "THP-1 monocytes", "value": "hindered their passage through the cellular membrane"}, {"measurement": "solubility in the aqueous", "setting": "[4]", "value": "dramatically reduced their solubilities"}]}, {"compound": "CC(C)OP(=O)(OC(C)C)c1ccc(-c2c3nc(c(-c4ccc(Br)cc4)c4ccc([nH]4)c(-c4ccc(Br)cc4)c4nc(c(-c5ccc(Br)cc5)c5ccc2[nH]5)C=C4)C=C3)cc1", "note": "[p-TBr3PPA-iPr2, 5,10,15-tris[p-bromophenyl]-20-[p-phenyl-, bis(1-methylethyl) esterphosphonic acid] porphyrin]", "values": [{"measurement": "HAP-associated staining / binding to HAP in rib sections", "setting": "[1]; 120 mins", "value": "lack of HAP-associated staining; also recorded: no binding to HAP occurring"}, {"measurement": "behaviour of the dye during incubation", "setting": "[4]; 1 mg/mL in DMSO", "value": "precipitation of the dye"}, {"measurement": "behaviour of the dye during the incubation period", "setting": "[4]; 1 mg/mL in HEPES, PBS, TBS and dH2O, 120 mins", "value": "precipitated"}]}, {"compound": "((4-(5,5-difluoro-1,3,7,9-tetramethyl-5H-414,514-dipyrrolo[1,2-c:2′,1′-f][1,3,2]diazaborinin-10-yl)phenyl)phosphonic acid) [BODIPY-PPA]", "values": [{"measurement": "dependence of fluorescence intensity of rib staining on incubation time", "setting": "[1]; 1 mg/mL in HEPES", "value": "decrease in fluorescence intensity is observed for decreasing incubation times"}, {"measurement": "change of fluorescence intensity after staining", "setting": "[1]; [5]", "value": "only a very slight decrease in fluorescence intensity"}, {"measurement": "dependence of fluorescence intensity of rib staining on dye concentration", "setting": "[1]; 120 mins", "value": "strong concentration dependency of staining"}]}]}
